Source: the CheMixHub ionic liquid set

Test: xn = mol fraction of the nth substance listed

CCCCCCCCCCCCOS(=O)(=O)[O-].[Na+] + CCCO + O
298 K, 100 kPa, frequency 0.001 MHz
Conditions | electrical conductivity [S/m]
x2 = 0.01543, x1 = 3.435e-05 | 0.0146
x2 = 0.02615, x3 = 0.9738 | 0.033
x2 = 0.04737, x3 = 0.9525 | 0.0508
x2 = 0.07172, x3 = 0.9277 | 0.102
x2 = 0.07173, x3 = 0.9279 | 0.0751

298.15 K, 101 kPa
Conditions | electrical conductivity [S/m]
x2 = 0, x1 = 3.24e-06 | 0.001447
x2 = 0, x1 = 8.11e-06 | 0.003433
x2 = 0, x1 = 1.64e-05 | 0.006697
x2 = 0, x1 = 2.505e-05 | 0.01006
x2 = 0, x1 = 2.991e-05 | 0.0119
x2 = 0, x1 = 3.478e-05 | 0.01378
x2 = 0, x1 = 3.964e-05 | 0.01564
x2 = 0, x1 = 5.063e-05 | 0.01999
x2 = 0, x1 = 6.198e-05 | 0.02434
x2 = 0, x1 = 7.406e-05 | 0.02896
x2 = 0, x1 = 8.09e-05 | 0.03151
x2 = 0, x1 = 8.667e-05 | 0.03369
x2 = 0, x1 = 9.135e-05 | 0.03548
x2 = 0, x1 = 9.694e-05 | 0.03753
x2 = 0, x1 = 0.0001016 | 0.03931
x2 = 0, x1 = 0.000107 | 0.04131
x2 = 0, x1 = 0.0001175 | 0.0452
x2 = 0, x1 = 0.0001223 | 0.047
x2 = 0, x1 = 0.0001268 | 0.04874
x2 = 0, x1 = 0.0001315 | 0.0504
x2 = 0, x1 = 0.0001364 | 0.05202
x2 = 0, x1 = 0.0001411 | 0.05353
x2 = 0, x1 = 0.0001454 | 0.05471
x2 = 0, x1 = 0.0001541 | 0.05656
x2 = 0, x1 = 0.0001586 | 0.05737
x2 = 0, x1 = 0.0001631 | 0.05814
x2 = 0, x1 = 0.0001692 | 0.05912
x2 = 0, x1 = 0.0001735 | 0.05977
x2 = 0, x1 = 0.000178 | 0.06043
x2 = 0, x1 = 0.0001825 | 0.06112
x2 = 0, x1 = 0.0001892 | 0.06206
x2 = 0, x1 = 0.0001935 | 0.06269
x2 = 0, x1 = 0.0002002 | 0.06378
x2 = 0, x1 = 0.0002048 | 0.06444
x2 = 0, x1 = 0.0002097 | 0.06508
x2 = 0, x1 = 0.000214 | 0.06575
x2 = 0.007626, x1 = 0.0004015 | 0.09227
x2 = 0.007627, x1 = 0.0002602 | 0.06737
x2 = 0.007627, x1 = 0.0002829 | 0.07143
x2 = 0.007627, x1 = 0.0003124 | 0.07668
x2 = 0.007627, x1 = 0.0003456 | 0.08254
x2 = 0.007628, x1 = 0.0001267 | 0.04228
x2 = 0.007628, x1 = 0.000135 | 0.04399
x2 = 0.007628, x1 = 0.0001447 | 0.04592
x2 = 0.007628, x1 = 0.0001683 | 0.05047
x2 = 0.007628, x1 = 0.0001845 | 0.05346
x2 = 0.007628, x1 = 0.0002013 | 0.05663
x2 = 0.007628, x1 = 0.0002199 | 0.06003
x2 = 0.007628, x1 = 0.0002404 | 0.06381
x2 = 0.007629, x1 = 1.192e-05 | 0.004556
x2 = 0.007629, x1 = 1.321e-05 | 0.005113
x2 = 0.007629, x1 = 1.651e-05 | 0.00628
x2 = 0.007629, x1 = 1.962e-05 | 0.007449
x2 = 0.007629, x1 = 2.274e-05 | 0.00856
x2 = 0.007629, x1 = 2.623e-05 | 0.009738
x2 = 0.007629, x1 = 2.934e-05 | 0.01087
x2 = 0.007629, x1 = 3.228e-05 | 0.01189
x2 = 0.007629, x1 = 3.595e-05 | 0.01317
x2 = 0.007629, x1 = 3.925e-05 | 0.01435
x2 = 0.007629, x1 = 4.255e-05 | 0.01551
x2 = 0.007629, x1 = 4.823e-05 | 0.0178
x2 = 0.007629, x1 = 5.135e-05 | 0.0189
x2 = 0.007629, x1 = 5.465e-05 | 0.02006
x2 = 0.007629, x1 = 5.795e-05 | 0.02124
x2 = 0.007629, x1 = 6.474e-05 | 0.02366
x2 = 0.007629, x1 = 6.804e-05 | 0.02483
x2 = 0.007629, x1 = 7.152e-05 | 0.02603
x2 = 0.007629, x1 = 7.464e-05 | 0.02715
x2 = 0.007629, x1 = 7.776e-05 | 0.02824
x2 = 0.007629, x1 = 8.088e-05 | 0.02934
x2 = 0.007629, x1 = 8.418e-05 | 0.03045
x2 = 0.007629, x1 = 8.95e-05 | 0.03235
x2 = 0.007629, x1 = 9.426e-05 | 0.03397
x2 = 0.007629, x1 = 9.995e-05 | 0.03577
x2 = 0.007629, x1 = 0.0001049 | 0.03716
x2 = 0.007629, x1 = 0.0001146 | 0.03955
x2 = 0.01553, x1 = 4.687e-05 | 0.01553
x2 = 0.01553, x1 = 5.322e-05 | 0.01769
x2 = 0.01553, x1 = 7.282e-05 | 0.0238
x2 = 0.01553, x1 = 7.842e-05 | 0.02558
x2 = 0.01553, x1 = 8.757e-05 | 0.02822
x2 = 0.01553, x1 = 9.765e-05 | 0.03081
x2 = 0.01553, x1 = 0.0001083 | 0.03351
x2 = 0.01553, x1 = 0.0001201 | 0.03619
x2 = 0.01553, x1 = 0.0001298 | 0.03847
x2 = 0.01553, x1 = 0.0001533 | 0.04391
x2 = 0.01553, x1 = 0.0001677 | 0.04711
x2 = 0.01553, x1 = 0.0001815 | 0.05015
x2 = 0.01553, x1 = 0.0001979 | 0.05361
x2 = 0.01553, x1 = 0.0002319 | 0.06058
x2 = 0.01553, x1 = 0.0002511 | 0.06442
x2 = 0.01553, x1 = 0.0002703 | 0.06822
x2 = 0.01553, x1 = 0.0002877 | 0.0716
x2 = 0.01553, x1 = 0.0003082 | 0.07551
x2 = 0.01554, x1 = 5.98e-06 | 0.002351
x2 = 0.01554, x1 = 1.176e-05 | 0.004274
x2 = 0.01554, x1 = 1.811e-05 | 0.006392
x2 = 0.01554, x1 = 2.428e-05 | 0.008288
x2 = 0.01554, x1 = 2.894e-05 | 0.009768
x2 = 0.01554, x1 = 3.492e-05 | 0.01173

CCCCCCCCn1cc[n+](C)c1.[Cl-] + CCO
viscosity [mPa·s], 101 kPa
Conditions | x2 = 0.0449 | x2 = 0.1305 | x2 = 0.6858 | x2 = 0.8809 | x2 = 0.9794
298.15 K | 12600 | 5400 | – | – | –
313.15 K | – | – | 14.6 | – | 1.061
328.15 K | 830 | – | 9.12 | 1.997 | 0.819
